Data on 21 molecules can be found in patent publication US7365083B2, “Amide derivatives as NMDA receptor antagonists” (Richter Gedeon Vegyeszeti Gyar Rt., priority 2000, dated 2008).

Read-outs that look alike come from different tables or passages of the source.

Holding throughout (type): cell-based
The target in experiment [1] is T1, NMDA receptors (Rattus norvegicus, UniProt P35439+Q00960).
T1 construct: primary neocortical cell cultures derived from 17 day old Charles River rat embryos; endogenous in cells; host or cells: primary neocortical neurons from 17 day old rat embryos, 4-7 days in vitro
Put plainly: NMDA antagonist potency in vitro by measurement of intracellular calcium concentration with a plate reader fluorimeter, primary neocortical cell cultures. From the text: It is known that during postnatal development the subunit composition of neuronal NMDA receptors is changing. […] Since NMDA receptors are known to be permeable to calcium ions upon excitation, we characterized the NMDA receptor activation by measurement of rise in intracellular calcium concentration following the agonist (NMDA) application to the cells.
Assessment of NMDA Antagonist Potency In Vitro by Measurement of Intracellular Calcium Concentration with a Plate Reader Fluorimeter
The cultures were used for the intracellular calcium measurements after 4-7 days in vitro. […] To stop the loading the cells were washed twice with the solution used for the measurement (140 mM NaCl, 5 mM KCl, 2 mM CaCl2, 5 mM HEPES, 5 mM HEPES-Na, 20 mM glucose, 10 μM glycine, pH=7.4). After washing the test compounds were added to the cells in the above solution (90 μl/well). Intracellular calcium measurements were carried out with a plate reader fluorimeter: elevation of Fluo-4-fluorescence and so, intracellular calcium was induced by application of 40 μM NMDA. Inhibitory potency of the test compounds was assessed by measuring the reduction in the calcium elevation in the presence of different concentrations of the compounds. After the measurement a standard calibration procedure with slight modifications was used to convert the fluorescent data to calcium concentration values [Meth. Cell.
Dose-response curves and IC50-values were calculated by using data derived from at least three independent experiments. Inhibitory potency of a compound at a single concentration point was expressed as percent inhibition of the NMDA response. Sigmoidal concentration-inhibition curves were fit to the data and IC50 values were determined as the concentration that produces half of the maximal inhibition caused by the compound.
(In general: Calcium assays in cells follow changes in intracellular calcium, usually with a dye or a luminescent sensor.)

Experiment [2] concerns the target T2, NR1a/NR2A receptors (Rattus norvegicus, UniProt Q00959).
T2 construct: expressed in transfected cells; host or cells: HEK293, transient expression
The experiment in a line: NMDA antagonist potency on HEK cells transiently transfected with NR1a/NR2A subunits, patch clamp method. The note with it: HEK293, 15 μM test concentration, 100 μM NMDA, -70 mV, read-out: NR1/NR2A % Inhibition of NMDA Ca2+-response 15 μM. How it is done: (§1) Genes cloned according to published sequences [gi508809 (rat NR1a), gi205738 (rat NR2B), gi2905805 (rat NR2A)] were inserted into inducible mammalian expression vectors bearing different resistance genes (hygromycine in case of NR1a or neomycine in case of NR2 subunits). The vector constructs were introduced into HEK293 cells using a cationic lipid-mediated transfection method. Protein expression was induced by 3 μM MuristeronA. Cells were maintained in the presence of 365 μM ketamine for 48-72 hours under an atmosphere of 95% air-5% CO2 at 37° C. before the experiments.
Assessment of NMDA Antagonist Potency on Cells Transfected with NR1a/NR2A Subunits—Patch Clamp Method
Cells transiently expressing NR1a/NR2A receptors and grown onto coverslips were used in patch clamp experiments. Whole-cell patch clamp recording was done according to the standard technique. Cell cultures were constantly superfused with an extracellular solution (140 mM NaCl, 5 mM KCl, 5 mM Hepes, 5 mM Na-Hepes, 2 mM CaCl2, 20 mM glucose, 10 μM glycine, pH 7.35) at room temperature. Patch pipettes with resistance between 3 and 6 MΩ were filled with an intracellular solution (140 mM CsCl, 11 mM EGTA, and 10 mM Hepes, pH 7.3). The inward current elicited by 100 μM NMDA was recorded from cells voltage clamped at −70 mV. Compounds were applied via a multibarrel ejection device controlled by electromagnetic valves. First NMDA was repeatedly administered until stabilization of responses, then it was given in the presence of the test compound. The degree of inhibition—expressed as percentage—was calculated from the peak currents evoked by NMDA in the presence and absence of the test compound. Selectivity ratio (NR2B/NR2A), was calculated as the ratio of test dose on NR1/2A transfected cells and IC50 value of NMDA antagonism on NR1/NR2B expressing cells.

Experiment [3] deals with T3, NR1a/NR2B receptors (Rattus norvegicus, UniProt P35439+Q00960).
T3 construct: expressed in transfected cells
Put plainly: NMDA antagonist potency on HEK293 cells stably expressing NR1a/NR2B subunits, fluorimetric method. To be noted: for IC50: HEK293 cells stably expressing NR1a/NR2B, intracellular calcium, plate reader fluorimeter, means of 3 experiments, read-out: NR1/NR2B IC50. As for the experimental part:
as §1
Assessment of NMDA Antagonist Potency on Cells Transfected with NR1a/NR2B Subunits—Fluorimetric Method
For establishment of cell clones stably expressing NR1a/NR2B receptors, transfected cells were exposed to the selecting antibiotics for 4 weeks then resistant clones were grown up. The expression of NR2B subunit protein was verified by a flow cytometry based immunocytochemical method. Positive clones were further tested for functional activity in patch clamp experiments. […] Induction of protein expression and maintenance of cells were the same as described above.
The cells were plated onto standard 96-well microplates. A plate reader-based fluorometric assay was used to measure NMDA antagonism. The method was essentially similar to that described above for testing primary cultures of rat cortical neurons.

Where [4] appears, read: rat primary neocortical cultures, 4-7 days in vitro, calcium elevation induced by 40 μM NMDA, Fluo-4, read-out: NMDA IC50.

T3 sequence (Q00960 27-1482, other chains not shown): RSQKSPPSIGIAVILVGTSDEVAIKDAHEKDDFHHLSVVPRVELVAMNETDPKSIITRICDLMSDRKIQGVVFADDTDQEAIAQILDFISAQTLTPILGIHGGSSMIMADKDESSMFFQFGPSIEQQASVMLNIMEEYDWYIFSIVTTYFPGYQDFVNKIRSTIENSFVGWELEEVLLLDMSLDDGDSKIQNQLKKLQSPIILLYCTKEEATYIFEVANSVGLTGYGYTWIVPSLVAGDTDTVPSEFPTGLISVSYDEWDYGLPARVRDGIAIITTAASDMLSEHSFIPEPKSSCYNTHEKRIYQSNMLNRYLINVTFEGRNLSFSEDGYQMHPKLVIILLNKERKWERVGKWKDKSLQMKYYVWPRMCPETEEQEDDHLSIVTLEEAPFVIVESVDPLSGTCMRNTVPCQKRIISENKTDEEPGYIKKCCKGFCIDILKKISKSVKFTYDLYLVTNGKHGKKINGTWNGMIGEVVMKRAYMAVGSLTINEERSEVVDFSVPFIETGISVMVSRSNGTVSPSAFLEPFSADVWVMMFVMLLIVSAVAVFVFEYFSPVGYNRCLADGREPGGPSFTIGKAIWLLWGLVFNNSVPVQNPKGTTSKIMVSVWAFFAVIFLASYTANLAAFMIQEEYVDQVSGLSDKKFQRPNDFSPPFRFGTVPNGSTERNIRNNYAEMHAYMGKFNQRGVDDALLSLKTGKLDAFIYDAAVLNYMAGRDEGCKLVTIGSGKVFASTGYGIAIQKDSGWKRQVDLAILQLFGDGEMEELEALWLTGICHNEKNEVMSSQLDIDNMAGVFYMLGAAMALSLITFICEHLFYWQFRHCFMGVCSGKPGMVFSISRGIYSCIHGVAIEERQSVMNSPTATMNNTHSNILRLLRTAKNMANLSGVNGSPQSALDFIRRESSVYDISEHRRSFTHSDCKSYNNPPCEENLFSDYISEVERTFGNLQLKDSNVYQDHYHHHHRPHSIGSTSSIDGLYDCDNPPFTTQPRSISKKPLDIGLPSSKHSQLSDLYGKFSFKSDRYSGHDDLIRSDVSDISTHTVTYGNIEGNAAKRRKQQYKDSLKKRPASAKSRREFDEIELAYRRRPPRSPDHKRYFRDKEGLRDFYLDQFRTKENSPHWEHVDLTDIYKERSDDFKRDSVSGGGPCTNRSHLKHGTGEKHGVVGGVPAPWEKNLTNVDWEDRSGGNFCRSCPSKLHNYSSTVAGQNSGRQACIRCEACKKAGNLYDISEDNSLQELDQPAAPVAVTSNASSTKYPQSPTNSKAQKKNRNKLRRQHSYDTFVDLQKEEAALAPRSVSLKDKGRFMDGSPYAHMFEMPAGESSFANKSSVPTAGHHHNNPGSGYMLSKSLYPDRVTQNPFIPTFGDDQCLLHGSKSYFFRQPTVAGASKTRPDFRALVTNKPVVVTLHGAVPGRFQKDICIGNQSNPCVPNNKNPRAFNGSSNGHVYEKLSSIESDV
T1 sequence (Q00960 27-1482, other chains not shown): as above
T2 sequence (Q00959 20-1464 limits assumed): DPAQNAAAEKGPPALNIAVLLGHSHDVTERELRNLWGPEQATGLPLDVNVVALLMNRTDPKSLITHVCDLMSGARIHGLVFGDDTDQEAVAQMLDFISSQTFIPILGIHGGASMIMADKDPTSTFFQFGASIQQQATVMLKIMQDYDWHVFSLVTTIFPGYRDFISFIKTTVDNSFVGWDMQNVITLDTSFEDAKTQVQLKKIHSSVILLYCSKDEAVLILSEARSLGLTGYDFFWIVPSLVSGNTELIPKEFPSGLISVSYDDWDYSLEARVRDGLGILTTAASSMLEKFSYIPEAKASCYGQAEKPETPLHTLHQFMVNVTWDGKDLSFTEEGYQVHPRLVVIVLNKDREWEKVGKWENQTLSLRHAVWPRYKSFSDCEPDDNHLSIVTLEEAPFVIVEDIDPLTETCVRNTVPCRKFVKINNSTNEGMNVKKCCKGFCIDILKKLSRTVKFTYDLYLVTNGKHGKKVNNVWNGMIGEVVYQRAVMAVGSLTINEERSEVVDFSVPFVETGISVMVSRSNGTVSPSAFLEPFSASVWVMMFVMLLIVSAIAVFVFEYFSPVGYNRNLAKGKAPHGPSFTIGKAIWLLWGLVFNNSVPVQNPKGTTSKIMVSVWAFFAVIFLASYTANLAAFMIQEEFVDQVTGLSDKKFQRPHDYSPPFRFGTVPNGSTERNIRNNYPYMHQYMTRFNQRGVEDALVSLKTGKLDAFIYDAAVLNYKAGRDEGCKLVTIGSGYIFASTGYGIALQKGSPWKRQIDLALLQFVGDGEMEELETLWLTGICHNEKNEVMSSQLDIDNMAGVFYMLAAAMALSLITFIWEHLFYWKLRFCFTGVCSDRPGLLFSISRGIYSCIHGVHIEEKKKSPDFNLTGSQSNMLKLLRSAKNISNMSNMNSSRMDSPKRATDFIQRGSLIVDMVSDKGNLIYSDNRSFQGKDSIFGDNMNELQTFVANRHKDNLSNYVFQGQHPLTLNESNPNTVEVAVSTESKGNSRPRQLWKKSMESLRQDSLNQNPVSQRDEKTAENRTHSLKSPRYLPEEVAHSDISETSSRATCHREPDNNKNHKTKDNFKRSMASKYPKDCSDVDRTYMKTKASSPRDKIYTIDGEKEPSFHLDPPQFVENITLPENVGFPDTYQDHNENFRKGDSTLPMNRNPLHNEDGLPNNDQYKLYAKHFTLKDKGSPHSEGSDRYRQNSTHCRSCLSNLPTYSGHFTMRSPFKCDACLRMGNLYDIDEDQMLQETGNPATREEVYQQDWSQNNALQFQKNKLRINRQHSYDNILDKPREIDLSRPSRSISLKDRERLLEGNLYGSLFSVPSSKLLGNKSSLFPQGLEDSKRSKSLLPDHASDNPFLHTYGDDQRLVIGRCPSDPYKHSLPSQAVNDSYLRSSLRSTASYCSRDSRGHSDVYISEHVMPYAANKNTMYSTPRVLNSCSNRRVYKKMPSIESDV

As to `O=C(c1cc2cc3[nH]c(=O)oc3cc2[nH]1)N1CCC(Cc2ccc(F)cc2)CC1` [Compound 4570001484, 6-[4-(4-Fluorobenzyl)piperidin-1-carbonyl]-1,5-dihydro-oxazolo[4,5-f]indole-2-one], the IC50 in experiment [1] (setting [4]) came to 41 nM.

Take `C[C@@H](CN1CCC(Cc2ccccc2)CC1)[C@@H](O)c1ccc(O)cc1` [Ro 25.6981, R-(R*,S*)-1-(4-hydroxyphenyl)-2-methyl-3-[4-(phenylmethyl)piperidin-1-yl]-1-propanol, reference compound]: the IC50 in experiment [1] is 159 nM.

Regarding `O=C(c1cc2c(ccc3[nH]ncc32)[nH]1)N1CCC(Cc2ccc(F)cc2)CC1` [Compound 4570001690, [4-(4-Fluorobenzyl)piperidin-1-yl]-(3,6-dihydro-pirrolo[3,2-e]indazol-7-yl)methanone], in experiment [1] (setting [4]), the IC50 is 22 nM.

Take `Oc1ccc(OCCN2CCC(Cc3ccc(F)cc3)CC2)cc1` [Co-111103, 1-[2-(4-hydroxyphenoxy)ethyl]-4-(4-fluorobenzyl)piperidine, reference compound]: the IC50 in experiment [1] (setting [4]) was 60 nM.

Consider `O=C(c1cc2c(ccc3[nH]cnc32)[nH]1)N1CCC(Cc2ccc(F)cc2)CC1` [Compound 4570001688, [4-(4-Fluorobenzyl)piperidin-1-yl]-(3,6-dihydro-imidazo[4,5-e]indol-7-yl)methanone], for which the IC50 in experiment [1] (setting [4]) was found to be 88 nM.

As to `O=C(c1cc2c(ccc3cn[nH]c32)[nH]1)N1CCC(Cc2ccccc2)CC1` [Compound 4570001662, (4-Benzylpiperidin-1-yl)-(1,6-dihydro-pirrolo[2,3-g]indazol-7-yl)-methanone], the IC50 in experiment [1] (setting [4]) came out at 58 nM.

Consider `O=C(c1nc2c(ccc3oc(=O)[nH]c32)[nH]1)N1CCC(Cc2ccccc2)CC1` [Compound 4570001971, 7-(4-Benzylpiperidin-1-carbonyl)-1,6-dihydro-3-oxa-1,6,8-triaza-as-indacen-2-one], for which the IC50 in experiment [1] (setting [4]) came to 328 nM.

For `O=C(c1nc2cc3[nH]c(=O)oc3cc2[nH]1)N1CCC(Cc2ccccc2)CC1` [Compound 4570001972, 6-(4-Benzylpiperidin-1-carbonyl)-3,5-dihydro-imidazo[4′,5′;4,5]benzo[1,2-d]oxazole-2-one], the IC50 in experiment [1] (setting [4]) came to 193 nM.

On to `O=C(c1cc2cc3[nH]c(=O)[nH]c3cc2[nH]1)N1CCC(Cc2ccccc2)CC1` [Compound 4570002045, 6-(4-Benzylpiperidin-1-carbonyl)-3,5-dihydro-1H-imidazo[4,5-f]indole-2-one], for which the IC50 in experiment [1] (setting [4]) amounted to 440 nM.

`Cc1ccc(OC2CCN(C(=O)c3cc4c(ccc5[nH]ncc54)[nH]3)CC2)cc1` [Compound 4570002260, (3,6-Dihydro-pirrolo[3,2-e]indazol-7-yl)-(4-p-tolyloxypiperidin-1-yl)methanone]: the IC50 in experiment [1] (setting [4]) came out at 42 nM; in experiment [3], 30 nM. For the same molecule, the inhibition at 15 µM in experiment [2] was 3.3%. Besides, in experiment [3] (according to the results in Table 2), the “selectivity toward NR2B subunit containing NMDA receptors (in words)” value is listed as “highly selective”. The “Selectivity (selectivity ratio NR2B/NR2A)” value in experiment [3] (ratio of test concentration on NR1/NR2A transfected cells and IC50 value on NR1/NR2B expressing cells) is recorded as greater than 500.

Consider `O=C(c1cc2ccc3[nH]ccc3c2[nH]1)N1CCC(Cc2ccccc2)CC1` [Compound 4514305, 1-(4-Benzylpiperidin-1-yl)-1-(1,6-dihydro-1,6-diaza-as-indacene-2-yl)methanone], for which the IC50 in experiment [1] (setting [4]) stood at 392 nM.

As to `Cc1ccc(CC2CCN(C(=O)c3nc4ccc(O)cc4[nH]3)CC2)cc1` [Compound 4570001378, (6-Hydroxy-1H-benzoimidazol-2-yl)-[4-(4-methyl-benzyl)-piperidine-1-yl]-methanone], the IC50 in experiment [1] (setting [4]) turned out to be 9 nM.

Take `O=C(c1cc2c(ccc3cn[nH]c32)[nH]1)N1CCC(Cc2ccc(F)cc2)CC1` [Compound 4570001661, [4-(4-Fluorobenzyl)piperidin-1-yl]-(1,6-dihydro-pirrolo[2,3-g]indazol-7-yl)-methanone]: the IC50 in experiment [1] (setting [4]) is 150 nM.

As for `O=C(c1cc2ccc(O)cc2[nH]1)N1CCC(Cc2ccc(F)cc2)CC1` [Compound 4513848, 1-[4-(4-Fluorobenzyl)piperidine-1-yl]-1-(6-hydroxy-1H-indole-2-yl)methanone], the IC50 in experiment [1] (setting [4]) worked out at 90 nM.

Turning to `C[C@@H]([C@@H](O)c1ccc(O)cc1)N1CCC(O)(c2ccccc2)CC1` [CP 101,606, (1S,2S)-1-(4-hydroxyphenyl)-2-(4-hydroxy-4-phenylpiperidine-1-yl)-1-propanol, reference compound], in experiment [2], the inhibition at 15 µM was -8.8%.

With `O=C(c1cc2c(ccc3[nH]ncc32)[nH]1)N1CCC(Cc2ccccc2)CC1` [Compound 4570001689, (4-Benzylpiperidin-1-yl)-(3,6-dihydro-pirrolo[3,2-e]indazol-7-yl)methanone], the IC50 in experiment [1] (setting [4]) worked out at 20 nM.

On to `O=C(c1cc2c(ccc3[nH]cnc32)[nH]1)N1CCC(Cc2ccccc2)CC1` [Compound 4570001779, (4-Benzylpiperidin-1-yl)-(3,6-dihydro-imidazo[4,5-e]indol-7-yl)methanone], for which, in experiment [1] (setting [4]), the IC50 was 50 nM.

Consider `O=C(CCN1CCC(Cc2ccc(F)cc2)CC1)c1ccc2[nH]c(=O)oc2c1` [EMD 95885, reference compound], for which, in experiment [1] (setting [4]), the IC50 turned out to be 35 nM.

Regarding `O=C(c1cc2cc3[nH]c(=O)oc3cc2[nH]1)N1CCC(Cc2ccccc2)CC1` [Compound 4570001461, 6-(4-Benzylpiperidin-1-carbonyl)-1,5-dihydro-oxazolo[4,5-f]indole-2-one], the inhibition at 15 µM in experiment [2] came to 14.9%. In experiment [3], the IC50 was found to be 15 nM.

Take `O=C(c1cc2cc3[nH]c(=O)oc3cc2[nH]1)N1CCC(OCc2ccccc2)CC1` [Compound 4570001462, 6-(4-Benzyloxypiperidin-1-carbonyl)-1,5-dihydro-oxazolo[4,5-f]indole-2-one]: in experiment [1] (setting [4]), the IC50 was 79 nM.

For `Cc1ccc(CC2CCN(C(=O)c3cc4c(ccc5[nH]ncc54)[nH]3)CC2)cc1` [Compound 4570002340, (3,6-Dihydro-pirrolo[3,2-e]indazol-7-yl)-[4-(4-methylbenzyl)piperidin-1-yl]methanone], in experiment [1] (setting [4]), the IC50 was 127 nM.
